Active and inactive are the calls of the source.
Columns and labels:
[1] = biological target: Luciferin 4-monooxygenase (Photinus pyralis, UniProt P08659); assay: firefly luciferase enzyme inhibitors, dose response, biochemical, luminescence (AID 1891)
[2] = Luminescence Cell-Based Dose Confirmation HTS to Identify Inhibitors of Platelet Dense Granule Release. [Related pubchem assays: 1663 (Primary HTS), 1678 (Summary of Project)]; format: functional
[3] = biological target: FAD-linked sulfhydryl oxidase ALR (Homo sapiens, UniProt P55789); assay: inhibitors of human ALR sulfhydryl oxidase, dose response, biochemical, H2O2 detection, luminescence, cherry-pick (AID 493248)
FAD-linked sulfhydryl oxidase ALR, sequence (P55789 whole entry): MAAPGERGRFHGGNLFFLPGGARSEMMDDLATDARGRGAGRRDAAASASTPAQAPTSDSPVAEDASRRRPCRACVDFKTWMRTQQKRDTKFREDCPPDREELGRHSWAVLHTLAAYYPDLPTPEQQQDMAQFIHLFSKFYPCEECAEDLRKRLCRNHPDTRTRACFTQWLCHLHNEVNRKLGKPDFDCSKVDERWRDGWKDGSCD

[4] = biological target: T1, Calpain-2 catalytic subunit (Sus scrofa, UniProt P43367); assay: pig calpain II inhibitor potency, dose response, biochemical, fluorogenic peptide substrate (AID 1420); format: functional
T1 sequence (P43367 whole entry): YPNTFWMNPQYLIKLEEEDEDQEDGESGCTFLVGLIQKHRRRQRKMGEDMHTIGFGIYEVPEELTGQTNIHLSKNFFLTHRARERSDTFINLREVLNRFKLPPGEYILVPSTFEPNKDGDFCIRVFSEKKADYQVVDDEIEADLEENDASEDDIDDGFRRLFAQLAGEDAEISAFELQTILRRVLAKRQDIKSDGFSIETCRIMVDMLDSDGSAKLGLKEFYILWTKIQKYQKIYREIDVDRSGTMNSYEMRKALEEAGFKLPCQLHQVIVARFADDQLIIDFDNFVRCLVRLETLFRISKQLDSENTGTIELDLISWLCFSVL

[5] = Luminescence Cell-Based Dose Retest to Confirm Inhibitors of Cancer Stem Cells. [Related pubchem assays (depositor defined):AID2717, AID2721]; format: functional; details: Homo sapiens
[6] = biological target: T2, Short transient receptor potential channel 4 (Mus musculus, UniProt Q9QUQ5); assay: mouse TRPC4 channel inhibitors, dose response, cell-based, HEK293 TRPC4/mu-opioid, Fluo-4 calcium (AID 434942); format: functional;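 further: potency of inhibitors blocking the TRPC4 calcium response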
T2 sequence (Q9QUQ5 whole entry): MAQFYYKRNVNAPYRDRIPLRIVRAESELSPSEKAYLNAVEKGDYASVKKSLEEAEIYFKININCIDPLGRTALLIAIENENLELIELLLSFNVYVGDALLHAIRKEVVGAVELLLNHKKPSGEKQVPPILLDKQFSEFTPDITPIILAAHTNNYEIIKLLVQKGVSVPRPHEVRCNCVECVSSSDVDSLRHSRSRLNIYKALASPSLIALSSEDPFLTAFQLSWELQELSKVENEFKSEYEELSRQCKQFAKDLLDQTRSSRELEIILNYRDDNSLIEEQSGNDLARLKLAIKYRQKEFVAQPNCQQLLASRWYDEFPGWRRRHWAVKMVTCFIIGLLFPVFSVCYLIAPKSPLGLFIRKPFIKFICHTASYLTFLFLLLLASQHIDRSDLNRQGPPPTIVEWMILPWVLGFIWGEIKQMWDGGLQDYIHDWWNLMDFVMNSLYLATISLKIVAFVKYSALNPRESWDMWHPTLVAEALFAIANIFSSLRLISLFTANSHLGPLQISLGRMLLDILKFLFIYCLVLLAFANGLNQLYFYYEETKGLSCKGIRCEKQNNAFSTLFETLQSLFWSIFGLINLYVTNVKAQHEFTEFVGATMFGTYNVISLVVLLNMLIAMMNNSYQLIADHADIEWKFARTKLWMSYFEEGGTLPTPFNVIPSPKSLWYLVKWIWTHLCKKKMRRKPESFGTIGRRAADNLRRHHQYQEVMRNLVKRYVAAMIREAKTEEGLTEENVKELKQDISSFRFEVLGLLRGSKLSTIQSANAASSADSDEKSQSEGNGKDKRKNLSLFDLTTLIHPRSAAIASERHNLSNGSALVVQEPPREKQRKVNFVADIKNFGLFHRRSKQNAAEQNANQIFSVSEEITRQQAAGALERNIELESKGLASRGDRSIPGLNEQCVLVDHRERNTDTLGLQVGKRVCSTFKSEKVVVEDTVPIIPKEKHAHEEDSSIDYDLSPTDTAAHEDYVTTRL

[7] = P. falciparum Dd2 growth inhibitors, dose response, SYBR Green, cherry-picked samples (AID 1159567); format: functional, cell-based
[8] = tested on: INS1; assay: beta cell apoptosis inhibitors, cytokine rescue, dose response, luminescence, retest (AID 449756); format: functional, cell-based; details: Rattus norvegicus;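 further: cell death triggered by IL-1 beta plus TNF-alpha plus IFN-gamma mixture; protective hits raise ATP signal compared with cytokine alone wells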
[9] = cytotoxicity toward DRD oncogenic fibroblasts, dose response, cell-based, non-viral oncogenic, luminescence (AID 1934); format: functional; details: Homo sapiens
[10] = tested on: BJ; assay: cytotoxicity toward BJ-TERT fibroblasts, dose response, cell-based, RAS-independent, luminescence (AID 1933); format: functional; details: Homo sapiens
[11] = tested on: BJ; assay: cytotoxicity toward BJ-TERT-LT-ST fibroblasts, dose response, cell-based, RAS-independent, luminescence (AID 1935); format: functional; details: Homo sapiens;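 further: BJ fibroblasts immortalized with TERT plus LT and ST oncogenes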
[12] = tested on: BJ; assay: cells; format: functional, cell-based; details: Homo sapiens
[13] = inhibitors of HIV Env-driven cell fusion, dose response, cherry-pick (AID 652057); format: functional, cell-based
[14] = inhibitors of clade B AD8 Env fusion, dose response, cell-based, cherry-pick (AID 652062); format: functional;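 further: luciferase signal from cell-cell fusion driven by HIV-1 clade B AD8 Env; potency is for inhibitors of fusion seen as a drop in luminescence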
[15] = growth suppression of PTEN-null colon cells, dose response, cell-based, HCT116 PTEN knockout (AID 1047); format: functional;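 further: HCT116 colon tumor cells with PTEN knocked out; cells exposed to compound for 60 hours before readout; potency for loss of cell viability measured by luminescence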

Luciferin 4-monooxygenase, sequence (P08659 whole entry): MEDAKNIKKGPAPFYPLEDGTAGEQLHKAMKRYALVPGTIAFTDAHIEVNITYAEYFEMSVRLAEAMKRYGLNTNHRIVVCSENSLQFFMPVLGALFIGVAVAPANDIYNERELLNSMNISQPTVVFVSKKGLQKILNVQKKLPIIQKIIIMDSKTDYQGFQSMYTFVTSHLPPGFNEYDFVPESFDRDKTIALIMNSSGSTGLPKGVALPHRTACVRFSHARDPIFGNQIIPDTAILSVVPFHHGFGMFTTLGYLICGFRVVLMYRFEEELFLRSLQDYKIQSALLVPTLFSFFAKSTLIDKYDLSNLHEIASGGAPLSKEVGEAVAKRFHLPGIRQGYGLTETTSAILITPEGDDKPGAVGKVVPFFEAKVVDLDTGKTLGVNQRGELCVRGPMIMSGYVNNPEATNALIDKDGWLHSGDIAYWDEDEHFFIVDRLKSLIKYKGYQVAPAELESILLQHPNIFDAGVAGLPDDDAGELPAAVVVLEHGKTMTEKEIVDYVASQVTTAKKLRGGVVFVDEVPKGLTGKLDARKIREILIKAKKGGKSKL

## CN(C)C(=O)CN1C(=O)C2CC=C(Cl)CC2C1=O (configuration not stated)
[1]
  EC50: > 112 µM (not active)
[2]
  EC50: > 112 µM (not active)

## O=C(CCC(=O)c1cccs1)Nc1ccc(N2CCCCC2)cc1
[3]
  AC50: 6.49 µM (active)

## COc1ccc(-n2c(=S)[nH]c3cc(C(=O)Nc4ccc(OC)c(OC)c4)ccc3c2=O)cc1
[4]
  IC50: 22.5 µM (not active)

## CN1CCN(c2ccc(NC(=O)c3ccc(Cl)cc3)cn2)CC1
[5]
  AC50: 19.8 µM (active)

## COc1cc(OC)cc(C(=O)Nc2ccc3c(c2)OCCO3)c1
[1]
  EC50: 3.95 µM (active)
[2]
  EC50: 6.36 µM (active)

## CCc1cccc(CC)c1NC(=O)c1cc(CN2C(=O)c3ccccc3C2=O)ccc1OC
[4]
  IC50: 3.81 µM (not active)

## Cc1c(CCOC(=O)c2cccc([N+](=O)[O-])c2)sc[n+]1CC(=O)c1ccccc1
[6]
  EC50: 6.68 µM (active)

## COc1cccc(CN2CC3(CN(Cc4ccccn4)C3)c3c([nH]c4cc(OC)ccc34)[C@@H]2CO)c1
[7]
  AC50: 6.62 µM (active)

## CC(C)c1ccc(Nc2c([N+](=O)[O-])c(=O)n(C)c3ccccc23)cc1
[4]
  IC50: 3.37 µM (not active)

## OC[C@@H]1Nc2ccc(C3=CCCCC3)cc2[C@@H]2[C@H]1CCN2Cc1nccs1
[7]
  AC50: 6.24 µM (active)

## O=C(NCc1ccccc1)/C(NC(=O)c1ccccc1)=C(/Sc1ccccn1)c1ccccc1
[1]
  EC50: > 112 µM (not active)
[2]
  EC50: > 112 µM (not active)

## CCOC(=O)CSc1nc2c(sc(=S)n2-c2ccccc2OC)c(=O)n1-c1ccccc1OC
[6]
  EC50: 2.37 µM (active)

## O=C(N/N=C/c1cc(Cl)ccc1O)C(=O)Nc1ccccc1OC(F)(F)C(F)F
[5]
  AC50: 2.35 µM (active)
[8]
  AC50: 2.7 µM (active)

## C[C@H]1CN([C@@H](C)CO)C(=O)c2c(c3ccccc3n2C)-c2ccccc2CO[C@@H]1CN(C)Cc1ccc(Oc2ccccc2)cc1
[7]
  AC50: 1.76 µM (active)

## N#C[C@@H]1[C@H](c2ccccc2-c2cccc(F)c2)[C@H](CO)N1C(=O)C1CCCC1
[7]
  AC50: 2.8 µM (active)

## CCS(=O)(=O)N1CCC2(CC1)CN(Cc1cc(F)ccc1F)[C@H](CO)c1c2c2ccc(OC)cc2n1C
[7]
  AC50: 6.16 µM (active)

## COc1cc(-c2nc(-c3ccc(NC(=O)c4ccc(Br)o4)cc3)no2)cc(OC)c1OC
[5]
  AC50: 0.725 µM (active)

## C[C@H]1CN([C@@H](C)CO)C(=O)c2c(c3ccccc3n2C)-c2ccccc2CO[C@@H]1CN(C)S(=O)(=O)c1ccc(C(F)(F)F)cc1
[7]
  AC50: 4.6 µM (active)

## COc1ccc(N2CCN(C(=O)CCn3nnc4ccccc43)CC2)cc1
[3]
  AC50: 6.11 µM (active)

## CC(=O)OCCCN1C(=O)c2cccc3cc(Br)cc(c23)C1=O
[6]
  EC50: 0.211 µM (active)

## CC(C)N=C(S)N1CCN(C/C=C/c2ccccc2)CC1
[6]
  EC50: 4.73 µM (active)

## COc1cc2c(cc1OC)CN(C(=O)c1cc(=O)c3ccccc3o1)CC2
[9]
  EC50: 14.1 µM (active)
[10]
  EC50: 18.6 µM (active)
[11]
  EC50: > 150 µM (inconclusive)
[12]
  EC50: 43.3 µM (active)

## Cc1c(C(=O)c2ccc(Cl)c([N+](=O)[O-])c2)c2ccccn2c1CCC#N
[9]
  EC50: > 150 µM (not active)
[10]
  EC50: > 150 µM (not active)
[11]
  EC50: > 150 µM (inconclusive)
[12]
  EC50: > 150 µM (not active)

## COc1ccc(C(=O)NC2CCSc3ccccc32)cc1 (configuration not stated)
[1]
  EC50: > 112 µM (not active)
[2]
  EC50: > 112 µM (not active)

## CC1=NN(C(C#N)c2cccc([N+](=O)[O-])c2)C(C)(C)C1 (configuration not stated)
[1]
  EC50: > 112 µM (not active)
[2]
  EC50: > 112 µM (not active)

## Cn1c(S)nnc1-c1cnn(-c2ccccc2)c1N
[1]
  EC50: > 112 µM (not active)
[2]
  EC50: 4.85 µM (active)

## Cc1ccc(S(=O)(=O)N(C)C[C@H]2Oc3ncc(Br)cc3C(=O)N([C@@H](C)CO)C[C@@H]2C)cc1
[13]
  AC50: 4.57 µM (active)
[14]
  AC50: 5.51 µM (active)

## O=C(C1CCCCC1)N1CC(=O)N2[C@H](CO)[C@@H](c3ccc(C#CCc4ccccc4)cc3)[C@@H]2C1
[7]
  AC50: 5.61 µM (active)

## COc1ccc(C(CNC(=O)c2oc3ccc(F)cc3c2C)N2CCCCC2)cc1 (configuration not stated)
[6]
  EC50: 1.88 µM (active)

## CC(=O)Oc1ccc(-c2cc3c(OC(C)=O)cc(OC(C)=O)cc3oc2=O)cc1
[1]
  EC50: > 112 µM (not active)
[2]
  EC50: 13.7 µM (active)

## Cc1cc(C)c2nc(O)c(CN(Cc3cccnc3)C(S)=NCCCN(C)C)cc2c1
[6]
  EC50: 2.37 µM (active)

## Cc1nn(-c2nc3ccccc3n2Cc2ccccc2)c2c1C(=O)CC(C)(C)C2
[6]
  EC50: 2.11 µM (active)

## C/C=C/c1ccc([C@@H]2[C@H]3CNC[C@@H]2N3Cc2cc(F)ccc2F)cc1
[7]
  AC50: 4 µM (active)

## O=C(NCCCn1ccnc1)C(=O)NCC(c1ccco1)N1CCN(c2ccccc2)CC1 (configuration not stated)
[3]
  AC50: 3.74 µM (active)

## COc1cccc2c(N/N=C/c3ccccc3)cc(C)nc12
[3]
  AC50: 6.41 µM (active)

## Clc1ccc2c(c1)-c1nnc(Br)n1-c1ccccc1S2
[6]
  EC50: 5.96 µM (active)

## COc1cc(C2NCC(c3ccc(Cl)cc3Cl)c3c2[nH]c2ccccc32)cc(OC)c1OC (configuration not stated)
[5]
  AC50: 3.7 µM (active)

## NC(=O)CC(NC(=O)Cc1cccc2ccccc12)c1ccc(N2CCc3ccccc3C2)c([N+](=O)[O-])c1 (configuration not stated)
[5]
  AC50: 12.2 µM (active)

## COC(=O)Cc1c(C)c2ccc(OCC(=O)N3CCC(C)CC3)c(C)c2oc1=O
[1]
  EC50: > 112 µM (not active)
[2]
  EC50: 22.1 µM (active)

## Cc1cnc(C(=O)N2CCCC(C(=O)c3ccc(Cl)cc3C)C2)cn1 (configuration not stated)
[1]
  EC50: > 112 µM (not active)
[2]
  EC50: > 112 µM (not active)

## COc1ccccc1NC(=O)c1cc(O)nc2ccccc12
[3]
  AC50: 0.202 µM (active)

## CCCCCC(=O)Nc1nc(C)c(-c2csc(Nc3cc(OC)ccc3OC)n2)s1
[5]
  AC50: 1.29 µM (active)

## CCOC(=O)C1(Cc2ccccc2)CCN(Cc2ccc(C)s2)CC1
[6]
  EC50: 0.133 µM (active)

## O=S(=O)(c1ccccc1)c1cc(O)ccc1O
[3]
  AC50: 6.08 µM (active)

## CC1(c2ccccc2)CC(C)(C)N(C(=O)C2CCCO2)c2ccccc21 (configuration not stated)
[6]
  EC50: 3.76 µM (active)

## Cc1ccc(C(=O)N/N=C\c2ccc(-c3ccc(Cl)c(Cl)c3)o2)cn1
[5]
  AC50: 3.71 µM (active)

## COc1cc(/C=N/n2c(C)nnc2S)ccc1OCc1ccccc1
[3]
  AC50: 0.861 µM (active)

## CSc1ncccc1C(=O)OCC(=O)Nc1ccc(C)c(S(=O)(=O)N2CCOCC2)c1
[13]
  AC50: 53.2 µM (active)

## O=C(O)c1cccc(NC(=O)c2cc(-c3cccc(Cl)c3)nc3ccccc23)c1
[3]
  AC50: 0.01 µM (active)

## CCCn1c(SCC(=O)c2ccc3c(c2)NC(=O)CO3)nc2ccccc21
[15]
  EC50: 22.4 µM (active)

Source: ChEMBL document CHEMBL1201862, “PubChem BioAssay data set” (2004)
